Patent publication US20250134800A1, “Biomass Extract For Skin Applications” (EMBION TECHNOLOGIES SA, priority 2022, published 2025)

Columns and labels:
[1] = tested on: Staphylococcus aureus (MRSA) ATCC 33591; test: Microdilution assay in liquid broth, viable count on agar plates; format: cell-based; conditions: positive controls at 4%, up to 24 h
Method: (§1) A microbiological screening study on liquid broth was performed to assess the activity (bacterial growth) of 5 preparations (P1, P2, P3, P4 and P5) on two Staphylococcus species: (1) Staphylococcus aureus (MRSA) ATCC 33591 as potential skin pathogen and (2) Staphylococcus epidermidis ATCC 12228 as commensal strain in healthy skin. With the aim to assess a potential and strain specific antimicrobial or prebiotic activity vs Staphylococcus spp and to validate the hypothesis that the ingredients may have a prebiotic effect (on S. epidermidis) and meanwhile negatively impacting the viability or growth rate (on S. aureus), the experimental results are presented below.
(§2) To assess a potential and strain specific antimicrobial or prebiotic activity vs Staphylococcus spp.: a microdilution assay (viable count on agar plates) in liquid broth was performed using 3 different concentrations, 4%-2%-1% for each ingredient, compared to inulin and glucose as carbon source and prebiotic reference. […]
(§3) The growth rate checked by viable count (CFU/mL) was performed to quantify the number of residual viable cells present in the test cultures and they were then expressed as Log values.

[2] = tested on: Staphylococcus epidermidis ATCC 12228; test: as above; format: cell-based; conditions: positive controls at 4%, up to 24 h
Method: as §1, §2, §3

S. aureus = test: Inhibitory study on colonized Reconstructed Human Epidermis (RHE), viable count; format: cell-based, Staphylococcus aureus
Source text: The principal aim of the present study was to evaluate the potential efficacy of BSG-derived preparations on a more biologically relevant in vitro preclinical model based on colonized Reconstructed Human Epidermis (RHE). The main focus was given to: • I. to counteract Staphylococcus aureus adhesion and its proliferative capacity. The rationale was based on the possibility of the ingredients to balance the inflammatory reaction induced by the bacterium, reducing its adhesion and growth on RHE model (inhibitory study); • II. the prebiotic effect of the 3 preparations versus Staphylococcus epidermidis (prebiotic study). The rationale was based on the possibility of the ingredients to protect and biostimulant the normal skin microbiota; • III. their biological impact on sterile RHE model. The rationale was based on the possibility that the ingredients to enhance or balance the innate immune response.
For this study the following BSG-derived preparations were used: • for inhibitory and ingredient impact effects: P1 at 1%, P3 at 2% and P4 at 4%; • for prebiotic effect: […] at 1%, P3 at 2% and P5 at 1%.
SkinEthic^@ Reconstituted Human Epidermis 0.5 cm^2 is a reconstructed epidermis of normal human keratinocytes. Cells are grown on inert polycarbonate filters in chemically defined medium, for 17 days. The model reproduces epidermal morphology and it has been fully characterized. The good barrier function, batch reproducibility and low variability in terms of permeability for probe molecules have been described in Literature compared to human ex-vivo models. The RHE batch was tested for the absence of HIV1 and 2 antibodies, hepatitis C antibodies and hepatitis B antigen HBs. On cells from the donors, was verified the absence of bacteria, fungus and mycoplasma. The maintenance medium was tested for sterility.
Two days before the test, bacterial strains (S. aureus and S. epidermidis) were daily inoculated onto culture medium (BHI agar plate) and incubated at 37° C. in aerobic conditions for at least 24 h in order to obtain a fresh culture. The day of the colonization, bacterial strains have been resuspended in sterile saline solution at the required concentration range. Each starting bacterial inoculum concentration was checked by spectrophotometric OD measure and adjusted to obtain a range of about 10^7-10^8 UFC/mL (OD=0.1); it was then diluted 10-fold to obtain a final range concentration of 10^3-10^4 UFC/tissue for the inhibitory study and 10^4-10^5 UFC/tissue for prebiotic study. The starting inoculum level was also confirmed by serial decimal dilutions and viable counts on agar plates (BHI).
For both inhibitory and prebiotic RHE were pre-treated twice (overnight and 1 h before colonization respectively with 50 uL and 30 uL) on the apical part (directly spread on tissue surface) and left incubated at 37° C. (with CO2 5%) up to the colonization. Pre-treated RHE dedicated to inhibitory and prebiotic studies were colonized with 30 μL of the bacterial suspension previously obtained (respectively with S. aureus for inhibitory study and S. epidermidis for prebiotic study) and incubated at 37° C. (with CO2 5%) up to the required time point (24 h). RHE sterile were not colonized pre-treated twice (overnight and 1 h before colonization respectively with 50 uL and 30 uL) on the apical part (directly spread on tissue surface) and left incubated at 37° C. (with CO2 5%) up to the required time point (24 h). […]

[3] = RHE model after 2 days, vs colonized control, P1 1%, P3 2%, P4 4%, Chlorexidine 1%
[4] = RHE model after 2 days, P1 1%, P3 2%, P4 4%, Chlorexidine 1%

Compound	growth compared with inoculum count [1]	growth compared with inoculum count [2]	bacterial growth on RHE compared to the colonized control (S. aureus; P3 at 2%, P4 at 4%, REF Chlorexidine 1%)	Apical fraction Log reductions (S. aureus; [3]) [Log]	Homogenate fraction Log reductions (S. aureus; [3]) [Log]	Apical fraction Log (Mean) viable count (S. aureus; [4]) [Log]	Homogenate fraction Log (Mean) viable count (S. aureus; [4]) [Log]
Inulin	growth similar to the inoculum count	growth similar to the inoculum count					
N=C(NCCCCCCNC(=N)NC(=N)Nc1ccc(Cl)cc1)NC(=N)Nc1ccc(Cl)cc1 [REF, Chlorexidine]			no bacterial growth	>3.26	>3.00	<2.00	<2.00
